Read-outs that look alike come from different tables or passages of the source.
Columns and labels:
[1] = system: Nippostrongylus brasiliensis; assay: Activity against roundworms in rats, A.1: treatment 6 days after infection (patent infection), post-mortem worm counts; type: in vivo; conditions: 48 h, oral, 100 mg/kg, treated 6 days after infection, read-out: % Reduction of mean worm load
Experimental: In the Tables of results "s.c." means subcutaneous and the doses are expressed in mg/kg animal body weight. […] A.1. Rats were infected with 100 Nippostrongylus brasiliensis larvae each, by the subcutaneous route. After 6 days, when the infection was patent, the rats were randomised and allotted to groups of 5 animals each, ready for treatment. One group was used for each dose level of the test compound, which was administered by the oral or subcutaneous route, and in each experiment, one group of 10 animals was left untreated as a control. All the rats were killed for post-mortem worm counts 48 hours after treatment. The activities, expressed in terms of the percentage reduction in mean worm load of the treated groups compared with the untreated group, are shown in Table I.

[2] = system: Nippostrongylus brasiliensis; assay: Activity against roundworms in rats, A.2: treatment 24 hours after infection, post-mortem worm counts; type: in vivo; conditions: 144 h, treated 24 hours after infection, read-out: % Reduction of mean worm load
Experimental: In the Tables of results "s.c." means subcutaneous and the doses are expressed in mg/kg animal body weight. […] A.2. Rats were infected with 100 Nippostrongylus brasiliensis larvae each, by the subcutaneous route. After 24 hours the rats were randomised and allotted to groups of 5 animals each, ready for treatment. Doses of the test compound were then administered to each group by the oral or subcutaneous route, one group of 10 animals being left untreated as a control. All the rats were killed for post-mortem worm counts 6 days after dosing. The activities, expressed in terms of the percentage reduction in mean worm load of the treated groups compared with the untreated control group, are given below in Table II.

Haemonchus contortus [3] = assay: B.1 Activity against adult Haemonchus contortus in lambs; type: in vivo; conditions: s.c. 10 mg/kg (methanesulphonate salt), adult stage
Experimental: (§1) B.1. Activity against Haemonchus contortus and Nematodirus spathiger in their adult stages in lambs.
(§2) Worm-free, 8-10 week old lambs were each infected with 5000 H. contortus and 15000 N. spathiger larvae. Approximately 3 weeks later, doses of test compound A were administered to each group of 2 animals, by the subcutaneous route, one group of 2 animals being left untreated as a control.
(§3) Individual faecal H. contortus egg counts were determined 1 day before and 5- 7 days after treatment, when all the lambs were killed for post-mortem worm counts. The activities, expressed in terms of the percentage reduction in mean worm burden of each worm species compared with the untreated control group, are given below.

Nematodirus spathiger [4] = assay: B.1 Activity against adult Nematodirus spathiger in lambs; type: in vivo; conditions: s.c. 10 mg/kg (methanesulphonate salt), adult stage
Experimental: as §1, §2, §3

Haemonchus contortus [5] = assay: B.2 Activity against Haemonchus contortus in 4th larval and adult stages in lambs; type: in vivo; conditions: oral 4 mg/kg
Experimental: (§4) B.2. Activity against Haemonchus contortus, Ostertagia circumcincta, Trichostrongylus axei, Trichostrongylus colubriformis and Nematodirus spathiger in their 4th larval and adult stages in lambs.
(§5) Worm-free, 8-10 week old lambs were each infected with 5,000 H. contortus, 15,000 O. circumcincta, 20,000 T. axei, 15,000 T. colubriformis and 15,000 N. spathiger larvae.
(§6) Doses of test compound A of 4 mg/kg animal body weight were then administered to each group of 2 animals, by the oral route, after 7 days or 25 days to examine the effects against the 4th larval stage and mature adult worms respectively, one group of 2 animals being left untreated as a control. All the lambs were killed for post-mortem worm wounts 28 days after infection. The activities, expressed in terms of the percentage reduction in mean worm burden of each worm species compared with the untreated control group, are given below in Table III.

Ostertagia circumcincta = assay: B.2 Activity against Ostertagia circumcincta in 4th larval and adult stages in lambs; type: in vivo; conditions: oral 4 mg/kg
Experimental: as §4, §5, §6

Trichostrongylus axei = assay: B.2 Activity against Trichostrongylus axei in 4th larval and adult stages in lambs; type: in vivo; conditions: oral 4 mg/kg
Experimental: as §4, §5, §6

[6] = system: Trichostrongylus colubriformis; assay: B.2 Activity against Trichostrongylus colubriformis in 4th larval and adult stages in lambs; type: in vivo; conditions: oral 4 mg/kg
Experimental: as §4, §5, §6

Nematodirus spathiger [7] = assay: B.2 Activity against Nematodirus spathiger in 4th larval and adult stages in lambs; type: in vivo; conditions: oral 4 mg/kg
Experimental: as §4, §5, §6

Cooperia oncophora = assay: C.2 Activity against Cooperia oncophora in mature and immature stages in calves; type: in vivo; conditions: s.c. 25 mg/kg (methanesulphonate salt)
Experimental: (§7) C.2. Activity against Cooperia oncophora, Ostertagia ostertagi, and Dictyocaulus viviparus in their mature and immature stages in calves. Worm free, 6-7 week old calves were each infected with 15,000 C. oncophora, 15,000 O. ostertagi and 3,000 D. viviparus larvae. Groups of two animals each were treated subcutaneously with test compound A at a dose of 25 mg/kg animal body weight at 7 days or 25 days after infection, one group of two animals being left untreated as a control. All calves were killed approximately 28 days after infection and were examined for residual worm burdens. The percentage reduction in mean worm burden of each worm species compared with the untreated control group is given below in Table V.

Ostertagia ostertagi = assay: C.2 Activity against Ostertagia ostertagi in mature and immature stages in calves; type: in vivo; conditions: s.c. 25 mg/kg (methanesulphonate salt)
Experimental: as §7

Dictyocaulus viviparus = assay: C.2 Activity against Dictyocaulus viviparus in mature and immature stages in calves; type: in vivo; conditions: s.c. 25 mg/kg (methanesulphonate salt)
Experimental: as §7

Fasciola hepatica = assay: D. Activity against mature and immature liver flukes in sheep; type: in vivo; conditions: oral 25 mg/kg in gelatin capsules
Experimental: D. Activity against mature and immature liver flukes in sheep On the first day of the experiment a group of sheep were each infected with 300 metacercariae of liver fluke Fasciola hepatica and on the 56th day they were each infected with a further 300 metacercariae of F. hepatica. On day 70 of the experiment, doses of the test compounds of 25 mg/kg animal body weight were administered orally in gelatin capsules to groups of two animals per compound. One group of two animals was left untreated as controls. On day 98 of the experiment, all the sheep were killed. The number of mature flukes present in the bile ducts and the numbers of immature flukes present in the rest of the liver were counted. The activities, expressed in terms of the percentage reduction in mean fluke burdens compared with the untreated controls, are shown below in Table VI.

[8] = Oral acute toxicity (LD50) in mice; conditions: mouse, in vivo, observed during next 6 days
Excerpt: Mice were each treated orally with one of the compounds of formula I, and they were observed during the next 6 days. The LD50 figures obtained (doses lethal to 50% of mice tested) are shown in Table VII, expressed in mg/kg animal body weight.

Mycosphaerella pinodes = assay: Minimum effective concentration totally inhibiting fungal growth, Mycosphaerella pinodes, potato dextrose agar tubes; type: cell-based; conditions: Didymella pinodes, 48 h; total inhibition of fungal growth; tested at 50, 10 or 2 ppm; 25° C, 2 days
Experimental: Test tubes containing 4.0 ml of molten potato dextrose agar at about 50° C were inoculated with 0.5 ml of suspension of test compound and 0.5 ml of fungal suspension delivered from a sterile syringe to give a final concentration of each compound of 50, 10 or 2 ppm. Two replicate tubes were inoculated with each fungal species. After the addition of test compounds and fungal inoculum to the molten medium the tubes were sloped and the agar was allowed to set. The tubes were incubated at 25° C for either 2 days (Mycosphaerella pinodes) or 3 days (Helminthosporium avenae). […] The suspensions of test compounds were prepared by grinding 0.025 g of test compound with sterile distilled water containing 0.1 ml of 0.1% Texofor FX170 wetting agent, followed by dilution to the concentration desired. The inoculum of Mycosphaerella pinodes was prepared as follows: A one to two week old culture on Coon's agar on plates was scraped off with a glass rod and sterile distilled water and filtered through muslin. The filtrate, containing the spores, was used for inoculation.

[9] = sc, s.c. (methanesulphonate salt, aqueous)
[10] = treated at 7 days (4th larval stage)
[11] = treated at 25 days (mature adult worms)
[12] = treated 25 days after infection

SMILES: COC(=O)N=C1SCC(=O)N1c1ccc(Sc2ccccc2)cc1NC(=O)CN(C)C [Compound A, 3-[2-(2-dimethylaminoacetamido)-4-phenylthiophenyl]-2-methoxycarbonyliminothiazolidin-4-one]
- inhibition in vivo at 100 mg/kg [1]: 99%
- inhibition in vivo at 12.5 mg/kg ([2]; oral): 85%
- inhibition in vivo at 50 mg/kg ([2]; oral): 99%
- inhibition in vivo at 12.5 mg/kg [2, 9]: 91%
- inhibition in vivo at 50 mg/kg [2, 9]: 99%
- reduction of the mean worm burden of H. contortus (Haemonchus contortus [3]): 100%
- reduction of the mean worm burden of N. spathiger (Nematodirus spathiger [4]): 99%
- Percentage reduction in mean worm burdens, H. contortus (Haemonchus contortus [5]; [10]): 100%
- Percentage reduction in mean worm burdens, H. contortus (Haemonchus contortus [5]; [11]): 100%
- Percentage reduction in mean worm burdens, O. circumcincta (Ostertagia circumcincta; [10]): 99%
- Percentage reduction in mean worm burdens, O. circumcincta (Ostertagia circumcincta; [11]): 100%
- Percentage reduction in mean worm burdens, T. axei (Trichostrongylus axei; [10]): 100%
- Percentage reduction in mean worm burdens, T. axei (Trichostrongylus axei; [11]): 100%
- Percentage reduction in mean worm burdens, T. colubriformis [6, 10]: 100%
- Percentage reduction in mean worm burdens, T. colubriformis [6, 11]: 100%
- Percentage reduction in mean worm burdens, N. spathiger (Nematodirus spathiger [7]; [10]): 95%
- Percentage reduction in mean worm burdens, N. spathiger (Nematodirus spathiger [7]; [11]): 97%
- % Reduction of mean worm burdens, C. oncophora (Cooperia oncophora; treated 7 days after infection): 100%
- % Reduction of mean worm burdens, C. oncophora (Cooperia oncophora; [12]): 100%
- % Reduction of mean worm burdens, O. ostertagi (Ostertagia ostertagi; treated 7 days after infection): 97%
- % Reduction of mean worm burdens, O. ostertagi (Ostertagia ostertagi; [12]): 100%
- % Reduction of mean worm burdens, D. viviparus (Dictyocaulus viviparus; treated 7 days after infection): 83%
- % Reduction of mean worm burdens, D. viviparus (Dictyocaulus viviparus; [12]): 82%
- Mean % Reduction, Immature flukes (Fasciola hepatica; immature flukes in rest of liver): 29%
- Mean % Reduction, Mature flukes (Fasciola hepatica; mature flukes in bile ducts): 93%
- LD50 at 144 h [8]: ~1000 mg/kg
- MIC (Mycosphaerella pinodes): < 2 µg/mL
